Assay results taken from patent US20200095241A1, “SUBSTITUTED 1,2,4-THIADIAZOLYLPYRROLONES AND 1,2,4-THIADIAZOLYLHYDANTOINS AND SALTS THEREOF AND USE THEREOF AS HERBICIDES” (Bayer CropScience Aktiengesellschaft, priority 2016, published 2020).

Key:
Abutilon theophrasti = experiment: Post-emergence herbicidal action; format: in vivo; conditions: Abutilon theophrasti, 504 h, 1280 g/ha, about 3 weeks after treatment, read-out: Abutilon theophrasti, herbicidal activity rated visually
Procedure, shortened: (§1)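 Plants grown from seed in sandy loam in the greenhouse were sprayed 2 to 3 weeks after sowing, at the one-leaf stage, with WP or EC formulations as aqueous suspension or emulsion plus 0.5% additive at 600 l/ha water. Application rates were 1280 g/ha or 320 g/ha. Activity was scored visually after about 3 weeks versus untreated controls (0% = like control, 100% = plants dead).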

Alopecurus myosuroides [1] = experiment: Post-emergence herbicidal action; format: in vivo; conditions: 1280 g/ha, about 3 weeks after treatment
Procedure, shortened: as §1

Amaranthus retroflexus = experiment: Post-emergence herbicidal action; format: in vivo; conditions: 1280 g/ha, about 3 weeks after treatment
Procedure, shortened: as §1

Echinochloa crus-galli [2] = experiment: Post-emergence herbicidal action; format: in vivo; conditions: 1280 g/ha, about 3 weeks after treatment
Procedure, shortened: as §1

Hordeum murinum = experiment: Post-emergence herbicidal action; format: in vivo; conditions: 1280 g/ha, about 3 weeks after treatment
Procedure, shortened: as §1

Matricaria inodora [3] = experiment: Post-emergence herbicidal action; format: in vivo; conditions: 1280 g/ha, about 3 weeks after treatment
Procedure, shortened: as §1

Pharbitis purpurea = experiment: Post-emergence herbicidal action; format: in vivo; conditions: 1280 g/ha, about 3 weeks after treatment
Procedure, shortened: as §1

Polygonum convolvulus [4] = experiment: Post-emergence herbicidal action; format: in vivo; conditions: 1280 g/ha, about 3 weeks after treatment
Procedure, shortened: as §1

Setaria viridis [5] = experiment: Post-emergence herbicidal action; format: in vivo; conditions: Setaria viridis, 504 h, 1280 g/ha, about 3 weeks after treatment, read-out: Setaria viridis, herbicidal activity rated visually
Procedure, shortened: as §1

Stellaria media [6] = experiment: Post-emergence herbicidal action; format: in vivo; conditions: Stellaria media, 504 h, 1280 g/ha, about 3 weeks after treatment, read-out: Stellaria media, herbicidal activity rated visually
Procedure, shortened: as §1

Veronica persica = experiment: Post-emergence herbicidal action; format: in vivo; conditions: 1280 g/ha, about 3 weeks after treatment
Procedure, shortened: as §1

Viola tricolor [7] = experiment: Post-emergence herbicidal action; format: in vivo; conditions: 504 h, 1280 g/ha, about 3 weeks after treatment, read-out: Viola tricolor, herbicidal activity rated visually
Procedure, shortened: as §1

Alopecurus myosuroides [8] = experiment: Pre-emergence herbicidal action; format: in vivo; conditions: 1280 g/ha, after about 3 weeks
Procedure, shortened: (§2)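 Visual % damage vs untreated controls (100% = plants dead, 0% = like controls), scored ~3 wk after treatment. Soil-surface spray on freshly sown, soil-covered seeds; WP/EC formulations, 0.5% additive, 600 l/ha water; 1280 or 320 g/ha; greenhouse.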

Cyperus esculentus = experiment: Pre-emergence herbicidal action; format: in vivo; conditions: 1280 g/ha, after about 3 weeks
Procedure, shortened: as §2

Echinochloa crus-galli [9] = experiment: Pre-emergence herbicidal action; format: in vivo; conditions: 1280 g/ha, after about 3 weeks
Procedure, shortened: as §2

Matricaria inodora [10] = experiment: Pre-emergence herbicidal action; format: in vivo; conditions: Tripleurospermum inodorum, 504 h, 1280 g/ha, after about 3 weeks, read-out: Matricaria inodora, herbicidal effect scored visually
Procedure, shortened: as §2

Polygonum convolvulus [11] = experiment: Pre-emergence herbicidal action; format: in vivo; conditions: 1280 g/ha, after about 3 weeks
Procedure, shortened: as §2

Setaria viridis [12] = experiment: Pre-emergence herbicidal action; format: in vivo; conditions: Setaria viridis, 504 h, 1280 g/ha, after about 3 weeks, read-out: Setaria viridis, herbicidal effect scored visually
Procedure, shortened: as §2

Stellaria media [13] = experiment: Pre-emergence herbicidal action; format: in vivo; conditions: Stellaria media, 504 h, 1280 g/ha, after about 3 weeks, read-out: Stellaria media, herbicidal effect scored visually
Procedure, shortened: as §2

Viola tricolor [14] = experiment: Pre-emergence herbicidal action; format: in vivo; conditions: Viola tricolor, 504 h, 1280 g/ha, after about 3 weeks, read-out: Viola tricolor, herbicidal effect scored visually
Procedure, shortened: as §2

photosystem II (PS II) = target: T1, photosystem II (PS II) (Spinacia oleracea, UniProt P69560); experiment: Measurement of the PS II activity in thylakoid membranes (DCPIP reduction); format: biochemical; conditions: 100 μM test compound, spinach thylakoid membranes, DCPIP 120 μM, 10 min at 22° C. with exposure to light; read-out: Effect (inhibition of PS II activity)
T1 construct: the chloroplasts were osmotically ruptured and the thylakoid membranes were then obtained by centrifugation; from tissue; host or cells: fresh spinach leaves; thylakoid membranes isolated from chloroplasts
Procedure, shortened: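 Thylakoid membranes from spinach leaves in 50 mM phosphate buffer pH 6.8, 10 mM KCl; light-driven reduction of 120 μM DCPIP followed at 595 nm for 10 min at 22 °C. Compounds tested at 100 μM stock in DMSO (2.5% final DMSO), with activity binned by % inhibition classes.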

CC1=C(C)C(O)N(c2nc(C(C)C)ns2)C1=O (stereo not drawn) [I.2-5, 3,4-Dimethyl-5-hydroxy-1-(3-(isopropyl)-1,2,4-thiadiazol-5-yl)-1,5-dihydro-2H-pyrrol-2-one]
80%: Alopecurus myosuroides, herbicidal activity rated visually (Alopecurus myosuroides [1]) | Polygonum convolvulus, herbicidal activity rated visually (Polygonum convolvulus [4]) | Alopecurus myosuroides, herbicidal effect scored visually (Alopecurus myosuroides [8]) | Echinochloa crus-galli, herbicidal effect scored visually (Echinochloa crus-galli [9])
> 90%: inhibition at 100 µM (stock) (photosystem II (PS II))
100%: pest or weed control at 1280 g/ha (Abutilon theophrasti) | Amaranthus retroflexus, herbicidal activity rated visually (Amaranthus retroflexus) | Hordeum murinum, herbicidal activity rated visually (Hordeum murinum) | Matricaria inodora, herbicidal activity rated visually (Matricaria inodora [3]) | Pharbitis purpurea, herbicidal activity rated visually (Pharbitis purpurea) | pest or weed control at 1280 g/ha (Setaria viridis [5]) | pest or weed control at 1280 g/ha (Stellaria media [6]) | pest or weed control at 1280 g/ha (Viola tricolor [7]) | pest or weed control at 1280 g/ha (Matricaria inodora [10]) | Polygonum convolvulus, herbicidal effect scored visually (Polygonum convolvulus [11]) | pest or weed control at 1280 g/ha (Setaria viridis [12]) | pest or weed control at 1280 g/ha (Stellaria media [13]) | pest or weed control at 1280 g/ha (Viola tricolor [14])
90%: Echinochloa crus-galli, herbicidal activity rated visually (Echinochloa crus-galli [2]) | Veronica persica, herbicidal activity rated visually (Veronica persica) | Cyperus esculentus, herbicidal effect scored visually (Cyperus esculentus)
